The record followed here is paper PMC10537403 (Viruses, 2023).

No end group written: not given here.

What all share (type): cell-based
The test system of data set [1] is caprine herpesvirus type 1 (CpHV-1, reference Swiss strain E/CH). Nature of the data set: Antiviral activity against CpHV-1, plaque assay, time of addition assays. The note with it: MDBK cells.
For data set [2], the system named is canine distemper virus (CDV, strain Onderstepoort). Nature of the data set: Antiviral activity against CDV, plaque assay, time of addition assays. The note with it: VERO/hSLAM cells, co-treatment, virus pre-treatment, cell pre-treatment, post-treatment.
For data set [3], the system named is bovine herpesvirus type 1 (BoHV-1, Cooper strain). In words: Antiviral activity against BoHV-1, plaque assay, time of addition assays. The conditions noted are these: MDBK cells.
Data set [4] deals with VERO/hSLAM, BHK-21, and MDBK cell lines. In words: Cytotoxicity, MTT assay. The conditions noted are these: 2 and 24 h, peptides […] to 100 μM. (Tetrazolium dyes change colour on reduction, which living cells bring about.)
For data set [5], the system named is Schmallenberg virus (SBV). The note with it: BHK-21 cells, SBV 200 TCID50 incubated with peptide 1 h, CPE at 72 h, MTT staining.

“H-GILDAIKAIAKAAG-OH [Hylaseptin-P1, amphibian peptide derived from Leptopelis aubryi]”: the “Antiviral action against CpHV-1 (in words)” value in data set [1] was “no antiviral action”. Besides, the “Inhibitory effect against CDV in all the time-addition assays (in words)” value in data set [2] is “did not show an inhibitory effect”. Moreover, the “Antiviral action against BoHV-1 (in words)” value in data set [3] is recorded as “no antiviral action”. Besides, the “Cytotoxicity (in words)” value in data set [4] is reported as “not cytotoxic even at higher concentrations tested”. The “Activity against SBV infection (in words)” value (“Activity” for short) in data set [5] was “any activity”.

As to “H-GLADFLNKAVGKVVDFVKS-NH2 [Deserticolin-1, amphibian peptide secreted by Crinia deserticola]”, in data set [1], the “Antiviral action against CpHV-1 (in words)” value is reported as “no antiviral action”. For the same substance, the “Inhibitory effect against CDV in all the time-addition assays (in words)” value in data set [2] is listed as “did not show an inhibitory effect”. The “Antiviral action against BoHV-1 (in words)” value in data set [3] is on record as “no antiviral action”. The “Cytotoxicity (in words)” value in data set [4] is “not cytotoxic even at higher concentrations tested”. In addition, the “Activity” value in data set [5] was “any activity”.

As for RIGVLLARLPKLFSLFKLMGKKV-NH2 [RV-23], in data set [5], the “Activity” value is recorded as “able to reduce SBV infection with a higher efficacy”.
